Literature values as cited in patent publication US9522161B2, “Performance enhancing composition and method of delivering nutrients” (Advanced Bio Development, Inc., priority 2010, dated 2016).
Entries after “also recorded” stand apart in the source; their conditions may differ.

Tests used:
[1] = taken orally
[2] = pilot studies and human trials
[3] = not given; remark: listed apart in the source
[4] = not given; remark: listed apart in the source
[5] = test system: mice that have a hypoinsulinemic type of diabetes; conditions: mice with hypoinsulinemic type of diabetes
muscle = conditions: ribose supplementation in rats, depending on muscle fiber type
[6] = humans, chronic high-intensity exercise, ribose supplementation
[7] = consumed orally, within two hours
[8] = not given; remark: listed apart in the source

## Nc1ncnc2c1ncn2[C@@H]1O[C@H](COP(=O)(O)OP(=O)([O-])OP(=O)([O-])O)[C@@H](O)[C@H]1O.[Na+].[Na+] [ATP disodium, adenosine triphosphate (ATP) disodium]
[1]
  duration of measurable increase in circulating ATP levels: at least six
[2]
  adverse side effects: no adverse side effects have been observed

## Cn1c(=O)c2c(ncn2C)n(C)c1=O [Caffeine]
After consumption
  time until elevated levels appear in the bloodstream: 15 to 45 min
Post ingestion
  time of peak concentrations post ingestion: one
Within three to six hours of consumption
  decrease of circulating concentrations: 50 to 75%

## COC1=C(OC)C(=O)C(C/C=C(\C)CC/C=C(\C)CC/C=C(\C)CC/C=C(\C)CC/C=C(\C)CC/C=C(\C)CC/C=C(\C)CC/C=C(\C)CC/C=C(\C)CCC=C(C)C)=C(C)C1=O [CoQ10, Coenzyme Q10]
[3]; dosages of 90 to 150 mg/day
  increase in plasma concentrations: 180%
[3]; in vivo
  uptake of CoQ10 into the blood, share of the dose administered: 5 to 10%
[4]; 2,152 patients, 100 to 200 mg per day
  safety in cardiovascular-related clinical trials: safe, without any reports of toxicity or drug interactions
[4]; nausea, vomiting, diarrhea, appetite suppression, heartburn, epigastric discomfort
  share of users with gastrointestinal side effects: Less than one
[4]; over 8 months
  dosing level shown to be safe and well tolerated: ≤ 3,000 mg per day

## CO[C@H]1[C@H](O)[C@@H](O)[C@@H](O)[C@H](O)[C@@H]1O [D-pinitol]
[5]
  insulin-like effect: acute and chronic insulin-like effect

## CO[C@H]1[C@H](O)[C@@H](O)[C@@H](O)[C@H](O)[C@@H]1O [Pinitol]
Muscle cells
  stimulation of glucose uptake in muscle cells: 25-80%

## O=C[C@H](O)[C@H](O)[C@H](O)CO [Ribose]
muscle
  increase in hypoxanthine salvage: six- to eight-fold
  increase in nucleotide salvage: three- to six-fold
[6]
  time to return TAN and ATP levels to baseline: 65 to 72 h
[7]
  fraction of ribose absorbed in the intestines: 88-100%
[8]; doses of 10 grams or more on an empty stomach
  known side effects: transient hypoglycemia; also recorded: gastrointestinal discomfort, including loose stools and diarrhea
[8]; in vivo
  ribose level that can be safely ingested: ≤ 15 g per day
